The subject of test [1] is blood cholesterol level. The experiment in a line: Test B: measurement of the hypocholesterolaemic effect in rodents. The conditions noted are these: Rattus norvegicus, po; rats, diet enriched with 2.5% of cholesterol for 8 days; orally, 24 hours and 4 hours before sacrifice; read-out: 25% effective dose (ED25), quantity of compound which lowers the blood cholesterol level by 25%. Format: in vivo, male Wistar rats. How it is done:
Test B: measurement of the hypocholesterolaemic effect in rodents: male Wistar rats weighing 200-220 g are subjected to a diet enriched with 2.5% of cholesterol for 8 days; on the last two days, they are treated orally with the test product 24 hours and 4 hours before being sacrificed by exsanguination: the blood cholesterol level is evaluated on an aliquot fraction of serum by an automated enzymatic method. The results are expressed in the form of a 25% effective dose (ED25) in mg per kg of body weight, representing the quantity of compound which lowers the blood cholesterol level by 25%.

Test [2] concerns the target T1, aortic ACAT (acylcoenzyme A:cholesterol acyltransferase) (Oryctolagus cuniculus, UniProt A0A5F9CPP4).
T1 construct: the aorta is removed, dissected and homogenised in order to prepare the microsomal fraction of it by ultracentrifugation; from tissue; host or cells: aorta microsomes of cholesterol-fed male New Zealand rabbits
T1 sequence (A0A5F9CPP4 1-555): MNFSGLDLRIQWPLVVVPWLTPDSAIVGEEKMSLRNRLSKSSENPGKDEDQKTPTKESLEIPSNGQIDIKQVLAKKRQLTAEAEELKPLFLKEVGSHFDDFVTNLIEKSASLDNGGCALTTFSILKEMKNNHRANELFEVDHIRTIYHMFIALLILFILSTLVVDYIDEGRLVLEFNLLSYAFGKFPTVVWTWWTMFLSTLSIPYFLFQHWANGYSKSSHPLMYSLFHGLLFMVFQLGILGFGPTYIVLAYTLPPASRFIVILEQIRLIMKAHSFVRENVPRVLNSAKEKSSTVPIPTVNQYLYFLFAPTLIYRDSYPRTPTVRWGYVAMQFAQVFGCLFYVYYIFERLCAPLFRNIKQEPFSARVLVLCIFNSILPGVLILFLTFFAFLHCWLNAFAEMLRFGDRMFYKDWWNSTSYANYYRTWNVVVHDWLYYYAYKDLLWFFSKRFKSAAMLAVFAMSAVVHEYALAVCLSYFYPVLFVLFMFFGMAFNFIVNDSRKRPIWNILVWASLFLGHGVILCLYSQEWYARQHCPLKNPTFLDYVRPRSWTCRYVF
The experiment in a line: Test A: measurement of the inhibition of aortic ACAT in vitro in rabbits. Format: biochemical, male New Zealand rabbits. The conditions noted are these: microsomal fraction of aorta of rabbits on a diet enriched with 1.25% of cholesterol; [^14 C]oleylcoenzyme A; read-out: 50% inhibitory concentration (IC50), concentration of compound which inhibits the ACAT activity by 50%. How it is done: Test A: measurement of the inhibition of aortic ACAT in virro in rabbits: male New Zealand rabbits weighing between 2.2 and 2.5 kg, subjected beforehand for 15 days to a diet enriched with 1.25% of cholesterol, are sacrificed by cervical dislocation; the aorta is removed, dissected and homogenised in order to prepare the microsomal fraction of it by ultracentrifugation; these microsomes are incubated in the presence of [^14 C]oleylcoenzyme A in accordance with the method described by P. J. GILLIES et al., Exp. and Mol. Pathol., 1986, 44, 329-339; the lipids are extracted from the incubate with a methanol/chloroform mixture and the [^14 C]oleylcholesterol is separated by TLC: the latter compound represents a measure of the ACAT activity, and the results were expressed in the form of a 50% inhibitory concentration (IC50), representing the concentration of compound which inhibits the ACAT activity by 50%.

The test system of test [3] is blood sugar level. Nature of the test: Test D: measurement of the hypoglycaemic effect. Format: in vivo, male Swiss mice. The conditions noted are these: mice, orally, dose of 60 mg.kg, one hour. How it is done: Test D: measurement of the hypoglycaemic effect: male Swiss mice weighing 26-28 g are treated orally with the test product. One hour later, the animals are sacrificed by exsanguination, and the blood sugar level is measured on an aliquot fraction of plasma by an enzymatic method employing glucose oxidase.

Test [4] has as its system intestinal absorption of cholesterol. Nature of the test: Test C: measurement of the inhibition of intestinal absorption in rats. Type of test: in vivo, male Wistar rats. The conditions noted are these: Rattus norvegicus, po, fasted 24 hours, orally, with Triton WR-1339 I.V., [^3 H]cholesterol orally one hour later, blood three hours later, read-out: 50% effective dose (ED50), quantity of compound which inhibits the intestinal absorption of cholesterol by 50%. How it is done:
Test C: measurement of the inhibition of intestinal absorption in rats; male Wistar rats weighing 230-250 g, fasted for 24 hours, are treated simultaneously with the test product administered orally and with Triton WR-1339 administered I.V.; one hour later, they are again treated orally with [^3 H]cholesterol; three hours later, under ether anaesthesia, 1 ml of blood is withdrawn from the animals' retro-orbital sinus: the blood radioactivity, evaluated on 0.1 ml of serum, represents a measure of the absorption of the [^3 H]cholesterol administered. The results are expressed in the form of a 50% effective dose (ED50) in mg per kg of body weight, representing the quantity of compound which inhibits the intestinal absorption of cholesterol by 50%.

Broadly, the ED50 is the midpoint of the dose-response relation. As for `CC(C)c1cccc(C(C)C)c1NC(=O)NCC1(c2cn(C)c3ccccc23)CCCC1` [compound No. 1, N^1-(2,6-Diisopropylphenyl)-N^2-[1-(1-methyl-3-indolyl)-cyclopentylmethyl]urea], the ED25 in test [1] was determined as 0.098 mg/kg. In addition, the IC50 in test [2] turned out to be 46 nM. Also, in test [3], the “significant lowering of the blood sugar level” value turned out to be 21%. For the same compound, in test [4], the ED50 amounted to 0.176 mg/kg.
